Source: patent US20110034469A1, “Heterocyclic Compound” (TAKEDA PHARMACEUTICAL COMPANY LIMITED, priority 2009, published 2011)
Counter-ions that a name gives are not always drawn.

Legend:
[1] = molecular target: human XIAP_BIR3 domain purified protein (Homo sapiens, UniProt P98170); experiment: Human XIAP binding inhibitory activity (HTRF, b-Smac ligand); conditions: read-out: XIAP binding inhibitory rate (%) at 3 μM of the test compound
[2] = system: human breast cancer cell MDA-MB-231-Luc; experiment: In vivo breast cancer cell tumor regression activity; conditions: orally 100 mg/kg, twice per day for 14 days; subcutaneous MDA-MB-231-Luc tumor in female nude mouse
Procedure: MDA-MB-231 cells (American Tissue Culture Collection) were suspended in DMEM medium (Invitrogen) containing 10% fetal bovine serum (Cell Culture Bioscience), plated in a 12-well plate at 1×10^5 cells/mL, each well 1 mL, and the cells were cultured. After 24 hr of culture, the medium was removed, 100 μL of OMEM (Invitrogen) containing […] of pGL4 CMV-luc/Neo plasmid and Lipofectamin LTX (Invitrogen) was added to each well for transfection according to the attached instruction manual. After the plasmid DNA introduction is operation for 25 min., the medium was exchanged with DMEM medium, and the cells were further cultured for 72 hr. The introduced cells were suspended in a medium containing […] G418 (Sigma Ltd.) by a trypsin (Invitrogen) treatment, and plated again in a 6-well plate. […] Finally, MDA-MB-231 cells capable of growing in a medium containing […] G418 were treated by a limit dilution method to give a single colony. Luciferin (Promega) was added to MDA-MB-231 cells in each clone, and the chemical luminescence level was measured using ARVO (PerkinElmer) to give MDA-MB-231-Luc.
The human breast cancer cell MDA-MB-231-Luc ([…]) obtained in Experimental Example 5 were suspended in Matrigel solution (BD Bioscience) and transplanted into 6-week-old BALE/c female nude mouse (CLEA Japan, Inc.) by subcutaneous injection. Mice with a tumor engrafted at a size in tumor volume of about 200 mm^3 on day 12-15 post-transplantation were selected and 5 per group were used for the experiment. A 0.5% methylcellulose (Wako Pure Chemical Industries, Ltd.) suspension or 0.1 M PBS solution (NaH2PO4/Na2HPO4, pH 5.8) of the compound was orally administered at a dose of 100 mg/kg, twice per day for 14 days. The tumor diameter was measured on the day of start of the administration and the day of completion of the administration, and the tumor volume was obtained from formula 1.
tumor volume=long diameter×short diameter×short diameter×(½) formula 1
The ratio of the value obtained by subtracting tumor volume on the day of completion of the administration from that on the day of start of the administration to the tumor volume on the day of start of the administration was obtained as a tumor regression rate from the formula 2.
tumor regression rate (%)=(tumor volume on the day of start of administration−tumor volume on the day of completion of administration)/tumor volume on the day of start of administration×100 formula 2

Sequence of human XIAP_BIR3 domain purified protein (P98170 252-356 limits assumed): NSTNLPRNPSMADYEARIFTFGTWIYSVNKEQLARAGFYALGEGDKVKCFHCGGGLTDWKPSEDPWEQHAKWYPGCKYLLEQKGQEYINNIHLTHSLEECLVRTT

inhibition at 3 µM [1] [%]	SMILES	tumor regression rate (%) [2] [%]
98	CCO[C@@H]1C[C@@H]2CN(C(=O)[C@@H](NC(=O)[C@H](CC)NC)C3CCC(F)(F)CC3)[C@H](C(=O)N[C@@H]3CCOc4ccccc43)CN2C1 [Example 127, (3S,7R,8aR)-2-[(2S)-2-(4,4-difluorocyclohexyl)-2-{[(2S)-2-(methylamino)butanoyl]amino}acetyl]-N-[(4R)-3,4-dihydro-2H-chromen-4-yl]-7-ethoxyoctahydropyrrolo[1,2-a]pyrazine-3-carboxamide]	–
93.5	CN[C@@H](C)C(=O)N[C@H](C(=O)N1C[C@H]2C[C@@](C)(O)CN2C[C@H]1C(=O)N[C@@H]1CCOc2ccccc21)C1CCCCC1 [Example 41, (3S,7R,8aR)-2-{(2S)-2-cyclohexyl-2-[(N-methyl-L-alanyl)amino]acetyl}-N-[(4R)-3,4-dihydro-2H-chromen-4-yl]-7-hydroxy-7-methyloctahydropyrrolo[1,2-a]pyrazine-3-carboxamide dihydrochloride]	–
97.1	CN[C@@H](C)C(=O)N[C@H](C(=O)N1C[C@H]2CC(F)(F)CN2C[C@H]1C(=O)N[C@@H]1CCOc2ccccc21)C1CCCCC1 [Example 50, (3S,8aR)-2-{(2S)-2-cyclohexyl-2-[(N-methyl-L-alanyl)amino]acetyl}-N-[(4R)-3,4-dihydro-2H-chromen-4-yl]-7,7-difluorooctahydropyrrolo[1,2-a]pyrazine-3-carboxamide dihydrochloride]	–
99	CN[C@@H](C)C(=O)N[C@@H](CCCCNC(=O)CCCCCCCCC(=O)NCCCC[C@H](NC(=O)[C@H](C)NC)C(=O)N1C[C@H]2CCCN2C[C@H]1C(=O)N[C@@H]1CCCc2ccccc21)C(=O)N1C[C@H]2CCCN2C[C@H]1C(=O)N[C@@H]1CCCc2ccccc21 [Example 126, N,N′-bis{(5S)-5-[(N-methyl-L-alanyl)amino]-6-oxo-6-[(3S,8aR)-3-[(1R)-1,2,3,4-tetrahydronaphthalen-1-ylcarbamoyl]hexahydropyrrolo[1,2-a]pyrazin-2(1H)-yl]hexyl}decanediamide]	–
98.9	CN[C@@H](C)C(=O)N[C@@H](CCCCNC(=O)c1ccc(C(=O)NCCCC[C@H](NC(=O)[C@H](C)NC)C(=O)N2C[C@H]3CCCN3C[C@H]2C(=O)N[C@@H]2CCCc3ccccc32)cc1)C(=O)N1C[C@H]2CCCN2C[C@H]1C(=O)N[C@@H]1CCCc2ccccc21 [Example 125, N,N′-bis{(5S)-5-[(N-methyl-L-alanyl)amino]-6-oxo-6-[(3S,8aR)-3-[(1R)-1,2,3,4-tetrahydronaphthalen-1-ylcarbamoyl]hexahydropyrrolo[1,2-a]pyrazin-2(1H)-yl]hexyl}benzene-1,4-dicarboxamide]	–
95.5	CCO[C@@H]1C[C@@H]2CN(C(=O)[C@@H](NC(=O)[C@H](CC)NC)C3CCCCC3)[C@H](C(=O)N[C@@H]3CCOc4ccccc43)CN2C1 [Example 91, (3S,7R,8aR)-2-[(2S)-2-cyclohexyl-2-{[(2S)-2-(methylamino)butanoyl]amino}acetyl]-N-[(4R)-3,4-dihydro-2H-chromen-4-yl]-7-ethoxyoctahydropyrrolo[1,2-a]pyrazine-3-carboxamide]	–
96.6	CN[C@@H](C)C(=O)N[C@H](C(=O)N1C[C@H]2C[C@@H](OCC3CC3)CN2C[C@H]1C(=O)N[C@@H]1CCOc2ccccc21)C1CCCCC1 [Example 82, (3S,7R,8aR)-2-{(2S)-2-cyclohexyl-2-[(N-methyl-L-alanyl)amino]acetyl}-7-(cyclopropylmethoxy)-N-[(4R)-3,4-dihydro-2H-chromen-4-yl]octahydropyrrolo[1,2-a]pyrazine-3-carboxamide]	–

Continued, compound first:

SMILES	inhibition at 3 µM [1] [%]	tumor regression rate (%) [2] [%]
CCO[C@@H]1C[C@@H]2CN(C(=O)[C@@H](NC(=O)[C@H](C)NC)C3CCCCC3)[C@H](C(=O)N[C@@H]3CCOc4ccccc43)CN2C1 [Example 18, (3S,7R,8aR)-2-{(2S)-2-cyclohexyl-2-[(N-methyl-L-alanyl)amino]acetyl}-N-[(4R)-3,4-dihydro-2H-chromen-4-yl]-7-ethoxyoctahydropyrrolo[1,2-a]pyrazine-3-carboxamide]	99.6	78
CN[C@@H](C)C(=O)N[C@H](C(=O)N1C[C@H]2CCCN2C[C@H]1C(=O)N[C@@H]1CCOc2ccccc21)C1CCC(F)(F)CC1.Cl.Cl [Example 32, (3S,8aR)-2-{(2S)-2-(4,4-difluorocyclohexyl)-2-[(N-methyl-L-alanyl)amino]acetyl}-N-[(4R)-3,4-dihydro-2H-chromen-4-yl]octahydropyrrolo[1,2-a]pyrazine-3-carboxamide dihydrochloride]	–	61
CN[C@@H](C)C(=O)N[C@H](C(=O)N1C[C@H]2CCCN2C[C@H]1C(=O)N[C@@H]1CCOc2cc(F)cc(F)c21)C1CCCCC1 [Example 24, (3S,8aR)-2-{(2S)-2-cyclohexyl-2-[(N-methyl-L-alanyl)amino]acetyl}-N-[(4R)-5,7-difluoro-3,4-dihydro-2H-chromen-4-yl]octahydropyrrolo[1,2-a]pyrazine-3-carboxamide dihydrochloride]	97.3	55
CN[C@@H](C)C(=O)N[C@@H](CCCCNC(=O)OCc1ccccc1)C(=O)N1C[C@H]2CCCN2C[C@H]1C(=O)N[C@@H]1CCCc2ccccc21 [Example 6, benzyl{(5S)-5-[(N-methyl-L-alanyl)amino]-6-oxo-6-[(3S,8aR)-3-[(1R)-1,2,3,4-tetrahydronaphthalen-1-ylcarbamoyl]hexahydropyrrolo[1,2-a]pyrazin-2(1H)-yl]hexyl}carbamate dihydrochloride]	98.8	–
CCO[C@@H]1C[C@@H]2CN(C(=O)[C@@H](NC(=O)[C@H](C)NC)C3CCC(F)(F)CC3)[C@H](C(=O)N[C@@H]3CCOc4ccccc43)CN2C1 [Example 23, (3S,7R,8aR)-2-{(2S)-2-(4,4-difluorocyclohexyl)-2-[(N-methyl-L-alanyl)amino]acetyl}-N-[(4R)-3,4-dihydro-2H-chromen-4-yl]-7-ethoxyoctahydropyrrolo[1,2-a]pyrazine-3-carboxamide]	–	74
CN[C@@H](C)C(=O)N[C@H](C(=O)N1C[C@H]2CCCN2C[C@H]1C(=O)N[C@H]1c2ccccc2C[C@@H]1O)C1CCCCC1.Cl.Cl [Example 26, (3S,8aR)-2-{(2S)-2-cyclohexyl-2-[(N-methyl-L-alanyl)amino]acetyl}-N-[(1S,2S)-2-hydroxy-2,3-dihydro-1H-inden-1-yl]octahydropyrrolo[1,2-a]pyrazine-3-carboxamide dihydrochloride]	–	41
CN[C@@H](C)C(=O)N[C@H](C(=O)N1C[C@H]2CCCN2C[C@H]1C(=O)N[C@H]1c2ccccc2C[C@H]1O)C1CCCCC1 [Example 27, (3S,8aR)-2-{(2S)-2-cyclohexyl-2-[(N-methyl-L-alanyl)amino]acetyl}-N-[(1S,2R)-2-hydroxy-2,3-dihydro-1H-inden-1-yl]octahydropyrrolo[1,2-a]pyrazine-3-carboxamide dihydrochloride]	97.2	–
CN[C@@H](C)C(=O)N[C@@H](CCCNC(=O)OCc1ccccc1)C(=O)N1C[C@H]2CCCN2C[C@H]1C(=O)N[C@@H]1CCCc2ccccc21 [Example 5, benzyl{(4S)-4-[(N-methyl-L-alanyl)amino]-5-oxo-5-[(3S,8aR)-3-((1R)-1,2,3,4-tetrahydronaphthalen-1-ylcarbamoyl)hexahydropyrrolo[1,2-a]pyrazin-2(1H)-yl]pentyl}carbamate dihydrochloride]	99.2	–
CN[C@@H](C)C(=O)N[C@H](C(=O)N1C[C@H]2CCCN2C[C@H]1C(=O)N[C@@H]1CCOc2ccccc21)c1ccccc1.Cl.Cl [Example 19, (3S,8aR)—N-[(4R)-3,4-dihydro-2H-chromen-4-yl]-2-{(2S)-2-[(N-methyl-L-alanyl)amino]-2-phenylacetyl}octahydropyrrolo[1,2-a]pyrazine-3-carboxamide dihydrochloride]	–	64
